The values below come from patent US11787802B2, “Dihydrobenzimidazolones for medical treatment” (C4 Therapeutics, Inc., priority 2017, dated 2023).

The structures appear in SMILES notation. Structures can show the parent of a compound that is named as a salt. Where only a bound is given, the exact number is not on record here.

hCereblon(M1-L442)_hDDB1(M1-H1140), sequence (Q96SW2 whole entry): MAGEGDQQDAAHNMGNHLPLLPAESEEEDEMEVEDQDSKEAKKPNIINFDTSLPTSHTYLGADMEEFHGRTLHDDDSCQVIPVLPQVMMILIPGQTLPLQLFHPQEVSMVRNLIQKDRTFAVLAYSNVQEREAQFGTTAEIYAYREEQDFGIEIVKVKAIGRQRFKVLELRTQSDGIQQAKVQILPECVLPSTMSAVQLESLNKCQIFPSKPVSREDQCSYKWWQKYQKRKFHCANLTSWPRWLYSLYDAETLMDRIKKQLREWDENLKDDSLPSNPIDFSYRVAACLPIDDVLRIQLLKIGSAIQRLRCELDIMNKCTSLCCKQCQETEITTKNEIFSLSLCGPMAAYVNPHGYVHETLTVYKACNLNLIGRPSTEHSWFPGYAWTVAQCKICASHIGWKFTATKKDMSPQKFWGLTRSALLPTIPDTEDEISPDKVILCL
hCereblon(M1-L442)_hDDB1(M1-H1140), sequence (Q16531 whole entry partner): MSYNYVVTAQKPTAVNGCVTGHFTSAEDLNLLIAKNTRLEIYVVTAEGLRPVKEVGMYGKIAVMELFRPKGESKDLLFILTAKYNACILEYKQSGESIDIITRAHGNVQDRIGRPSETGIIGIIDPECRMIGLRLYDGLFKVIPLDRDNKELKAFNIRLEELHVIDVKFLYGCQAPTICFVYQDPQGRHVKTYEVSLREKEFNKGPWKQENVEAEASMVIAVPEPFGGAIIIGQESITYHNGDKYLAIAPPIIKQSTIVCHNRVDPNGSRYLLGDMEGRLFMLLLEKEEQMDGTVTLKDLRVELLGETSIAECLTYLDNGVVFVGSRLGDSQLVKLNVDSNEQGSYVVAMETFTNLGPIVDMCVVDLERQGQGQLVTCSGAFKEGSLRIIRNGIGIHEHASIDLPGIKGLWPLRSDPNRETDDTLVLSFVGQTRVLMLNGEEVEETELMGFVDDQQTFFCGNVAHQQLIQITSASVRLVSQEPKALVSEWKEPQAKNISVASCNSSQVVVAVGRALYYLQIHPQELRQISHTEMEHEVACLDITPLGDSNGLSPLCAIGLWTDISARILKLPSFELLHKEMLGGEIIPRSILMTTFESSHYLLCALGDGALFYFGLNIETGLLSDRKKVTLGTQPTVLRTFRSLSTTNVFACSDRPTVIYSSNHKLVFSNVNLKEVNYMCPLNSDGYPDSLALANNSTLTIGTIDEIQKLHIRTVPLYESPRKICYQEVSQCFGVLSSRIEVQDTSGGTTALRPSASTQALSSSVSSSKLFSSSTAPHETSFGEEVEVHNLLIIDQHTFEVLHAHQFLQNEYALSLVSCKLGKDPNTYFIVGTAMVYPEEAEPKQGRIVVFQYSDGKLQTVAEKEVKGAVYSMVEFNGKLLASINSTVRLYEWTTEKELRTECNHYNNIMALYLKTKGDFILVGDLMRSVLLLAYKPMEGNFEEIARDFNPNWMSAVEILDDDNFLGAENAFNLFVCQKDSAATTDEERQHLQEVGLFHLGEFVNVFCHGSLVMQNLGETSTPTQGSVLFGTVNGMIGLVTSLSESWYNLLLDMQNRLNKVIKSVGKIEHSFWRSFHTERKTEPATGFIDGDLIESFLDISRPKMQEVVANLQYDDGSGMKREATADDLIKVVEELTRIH

The assay concerns the target hCereblon(M1-L442)_hDDB1(M1-H1140) (Homo sapiens (Human), UniProt Q96SW2). As to the kind of experiment: Fluorescence direct binding protocol (tryptophan fluorescence titration). The conditions noted are these: fluorescence titration at 20° C., excited at 280 nm, recorded at 340 nm; protein 5.0 E−8 M; assay buffer 50 mM Hepes 7.4 200 mM NaCl; read-out: Fluorescence h-Cereblon_DDB1 Mean Kd_EQ. Here is the method:
Fluorescence Direct Binding Protocol
Determination of the affinities of compounds to protein containing one or more tryptophan is measurable by monitoring the fluorescence emission in direct mode. The measurements depending on the protein available amounts are performed either manually in a cuvette on ISS-PC1 photon counting spectrofluorometer or automatically in well plates on a fluorescence plate reader device. Fluorescence titrations are performed at 20° C. in the chosen binding assay buffer by using a defined constant protein concentration against ligand concentration variations. Small aliquots of known ligand concentration solubilized in DMSO were added and the fluorescence, excited at 280 nm, was recorded at 340 nm. The fluorescence intensity was corrected for protein dilution and for the filter effect (Birdsall et al.^69). The corrected fluorescence intensity was plotted against the ligand concentration and fitted using a four-parameter sigmoidal function, from which the equilibrium dissociation constant Kd was computed using the law of mass action assuming a 1:1 protein-ligand complex (Eftink, 1997^70).
Process • 1) Optimization of measurement parameters to minimize protein consumption and to minimize the dilution effect and the DMSO content • 2) Titration measurements of the protein against ligand by at least 12 titration steps to obtain a good s-curve fit • 3) Repeat the same titration measurements with the ligand alone to enable correction • 4) Check the stability of the protein once by titration against DMSO alone • 5) Determination of the molar extinction coefficients of the ligand at 280 and 340 nm with help of an UV-spectrophotometer • 6) Use Excel template for the correction of the measured raw data • 7) Use GraphPad Prism software for the quadratic binding fit and the KD evaluation.
In the case of `COC(=O)c1ccc2c(c1)nc(-c1cc(-c3cncn3C)nc3ccccc13)n2-c1ccc2[nH]c(=O)[nH]c2c1` [Example 107, Methyl 2-(2-(1-methyl-1H-imidazol-5-yl)quinolin-4-yl)-2′-oxo-2′,3′-dihydro-1′H-[1,5′-bibenzo[d]imidazole]-5-carboxylate], the Kd turned out to be 831 nM.

On to `CC(C)c1nc2cc(OCc3ccccc3)ccc2n1-c1ccc2[nH]c(=O)[nH]c2c1` [Example 120, 5-(Benzyloxy)-2-isopropyl-1′,3′-dihydro-2′H-[1,5′-bibenzo[d]imidazol]-2′-one], for which the Kd worked out at 194 nM.

As for `O=c1[nH]c2cc(-c3ccccc3OCc3ccccc3)cnc2[nH]1` [Example 104, 6-(2-(Benzyloxy)phenyl)-1,3-dihydro-2H-imidazo[4,5-b]pyridin-2-one], the Kd stood at 14 nM.

For `Cn1cncc1-c1cc(-c2nc3ccccc3n2-c2ccc3[nH]c(=O)[nH]c3c2)c2ccccc2n1` [Example 8, 2-(2-(1-Methyl-1H-imidazol-5-yl)quinolin-4-yl)-1′H-[1,5′-bibenzo[d]imidazol]-2′(3′H)-one], the Kd was determined as 6 nM.

On to `CC(=O)Nc1ccc(CC(=O)Nc2ccc3[nH]c(=O)[nH]c3c2)cc1` [Example 78, 2-(4-Acetamidophenyl)-N-(2-oxo-2,3-dihydro-1H-benzo[d]imidazol-5-yl)acetamide], for which the Kd was 23 nM.

On to `Nc1ccc2c(c1)CCN2c1ccc2[nH]c(=O)[nH]c2c1` [Example 140, 5-(5-Aminoindolin-1-yl)-1,3-dihydro-2H-benzo[d]imidazol-2-one hydrochloride], for which the Kd stood at 168 nM.

Consider `O=C(Nc1cccc(-c2cnco2)c1)c1ccc2[nH]c(=O)[nH]c2c1` [Example 142, N-(3-(Oxazol-5-yl)phenyl)-2-oxo-2,3-dihydro-1H-benzo[d]imidazole-5-carboxamide], for which the Kd was 11 nM.

`CNC(=O)c1cccc2c1CCCN2C(=O)Nc1ccc2[nH]c(=O)[nH]c2c1` [Example 109, N5-Methyl-N1-(2-oxo-2,3-dihydro-1H-benzo[d]imidazol-5-yl)-3,4-dihydroquinoline-1,5(2H)-dicarboxamide]: the Kd came to 39 nM.

For `Cn1c(=O)[nH]c2cc(Nc3ccccc3N)ccc21` [Example 53, 5-((2-Aminophenyl)amino)-1-methyl-1,3-dihydro-2H-benzo[d]imidazol-2-one], the Kd was 49 nM.

With `CC(=O)NC1CCN(C(=O)c2ccc3[nH]c(=O)[nH]c3c2)CC1` [Example 29, N-(1-(2-Oxo-2,3-dihydro-1H-benzo[d]imidazole-5-carbonyl)piperidin-4-yl)acetamide], the Kd was determined as 20 nM.

For `COC(=O)c1cccc2c1CCN2C(=O)c1ccc2[nH]c(=O)[nH]c2c1` [Example 54, Methyl 1-(2-oxo-2,3-dihydro-1H-benzo[d]imidazole-5-carbonyl)indoline-4-carboxylate], the Kd was 25 nM.

Take `Nc1ccccc1Nc1ccc2[nH]c(=O)[nH]c2c1` [Example 6, 5-((2-Aminophenyl)amino)-1H-benzo[d]imidazol-2(3H)-one]: the Kd was 54 nM.

With `CNC(=O)c1cccc2c1CCN2C(=O)Nc1ccc2[nH]c(=O)[nH]c2c1` [Example 93, N4-Methyl-N1-(2-oxo-2,3-dihydro-1H-benzo[d]imidazol-5-yl)indoline-1,4-dicarboxamide], the Kd is 10 nM.

Take `O=C(Nc1ccc2[nH]c(=O)[nH]c2c1)N1CCc2ccccc21` [Example 105, N-(2-Oxo-2,3-dihydro-1H-benzo[d]imidazol-5-yl)indoline-1-carboxamide]: the Kd worked out at 4 nM.

With `Cc1ncc(-c2ccc3[nH]c(=O)[nH]c3c2)s1` [Example 21, 5-(2-Methylthiazol-5-yl)-1H-benzo[d]imidazol-2(3H)-one], the Kd stood at 5 nM.

Regarding `CNC(=O)c1ccc2nc(C(C)C)n(-c3ccc4[nH]c(=O)[nH]c4c3)c2c1` [Example 30, 2-Isopropyl-N-methyl-2′-oxo-2′,3′-dihydro-1′H-[1,5′-bibenzo[d]imidazole]-6-carboxamide], the Kd is 1 nM.

In the case of `O=C(Nc1ccc2[nH]c(=O)[nH]c2c1)c1coc2ccccc12` [Example 68, N-(2-Oxo-2,3-dihydro-1H-benzo[d]imidazol-5-yl)benzofuran-3-carboxamide], the Kd turned out to be 9 nM.

On to `O=C(c1cnc2[nH]c(=O)[nH]c2c1)N1CCc2ccccc21` [Example 55, 6-(Indoline-1-carbonyl)-1,3-dihydro-2H-imidazo[4,5-b]pyridin-2-one], for which the Kd was less than 1 nM.

As to `CC(=O)Nc1ccc(NCc2ccc3[nH]c(=O)[nH]c3c2)cc1` [Example 146, N-(4-(((2-Oxo-2,3-dihydro-1H-benzo[d]imidazol-5-yl)methyl)amino)phenyl)acetamide], the Kd came to 18 nM.

As for `CCCc1nc2cc(C(=O)NC)ccc2n1-c1ccc2[nH]c(=O)[nH]c2c1` [Example 14, N-Methyl-2′-oxo-2-propyl-2′,3′-dihydro-1′H-[1,5′-bibenzo[d]imidazole]-5-carboxamide], the Kd was determined as 321 nM.

Turning to `CC(=O)N1CCC(C(=O)Nc2ccc3[nH]c(=O)[nH]c3c2)CC1` [Example 91, 1-Acetyl-N-(2-oxo-2,3-dihydro-1H-benzo[d]imidazol-5-yl)piperidine-4-carboxamide], the Kd was 5 nM.

As for `O=c1[nH]c2cnc(-c3ccc(F)cc3)cc2[nH]1` [Example 36, 6-(4-Fluoro-phenyl)-1,3-dihydro-imidazo[4,5-c]pyridin-2-one], the Kd was determined as 77 nM.

As to `CNC(=O)c1ccc2c(c1)nc(C1CCOCC1)n2-c1ccc2[nH]c(=O)[nH]c2c1` [Example 64, N-Methyl-2′-oxo-2-(tetrahydro-2H-pyran-4-yl)-2′,3′-dihydro-1′H-[1,5′-bibenzo[d]imidazole]-5-carboxamide], the Kd stood at 45 nM.

Turning to `CNC(=O)c1ccc2c(c1)nc(-c1ccccc1)n2-c1ccc2[nH]c(=O)[nH]c2c1` [Example 10, N-Methyl-2′-oxo-2-phenyl-2′,3′-dihydro-1′H-[1,5′-bibenzo[d]imidazole]-5-carboxamide], the Kd came to 88 nM.

Turning to `COC(=O)c1cccc2c1nc(C(C)C)n2-c1ccc2[nH]c(=O)[nH]c2c1` [Example 47, Methyl 2-isopropyl-2′-oxo-2′,3′-dihydro-1′H-[1,5′-bibenzo[d]imidazole]-4-carboxylate], the Kd amounted to 20 nM.

For the compound `CNC(=O)c1nc2ccccc2n1-c1ccc2[nH]c(=O)[nH]c2c1` [Example 102, N-Methyl-1-(2-oxo-1,3-dihydrobenzimidazol-5-yl)benzimidazole-2-carboxamide], the Kd was 130 nM.

As to `O=C(Nc1ccc2[nH]c(=O)[nH]c2c1)[C@@H]1CCCc2ccccc21` [Example 72, (R)—N-(2-Oxo-2,3-dihydro-1H-benzo[d]imidazol-5-yl)-1,2,3,4-tetrahydronaphthalene-1-carboxamide], the Kd stood at 14 nM.

Regarding `COc1ccccc1N1CCN(C(=O)Nc2ccc3[nH]c(=O)[nH]c3c2)CC1` [Example 128, 4-(2-Methoxyphenyl)-N-(2-oxo-2,3-dihydro-1H-benzo[d]imidazol-5-yl)piperazine-1-carboxamide], the Kd turned out to be 14 nM.

As to `O=c1[nH]c2ccc(-n3ccnc3-c3ccnc4ccccc34)cc2[nH]1` [Example 12, 5-(2-(Quinolin-4-yl)-1H-imidazol-1-yl)-1H-benzo[d]imidazol-2(3H)-one], the Kd worked out at 1 nM.

As to `O=C(Nc1ccc2[nH]c(=O)[nH]c2c1)N1CCc2ccc(Cl)cc21` [Example 129, 6-Chloro-N-(2-oxo-2,3-dihydro-1H-benzo[d]imidazol-5-yl)indoline-1-carboxamide], the Kd was 188 nM.

`CCOC(=O)c1ccc(NC(=O)Nc2ccc3[nH]c(=O)[nH]c3c2)cc1` [Example 126, Ethyl 4-(3-(2-oxo-2,3-dihydro-1H-benzo[d]imidazol-5-yl)ureido)benzoate]: the Kd amounted to 9 nM.

Take `NS(=O)(=O)c1ccc(C(=O)Nc2ccc3[nH]c(=O)[nH]c3c2)cc1` [Example 100, N-(2-Oxo-2,3-dihydro-1H-benzo[d]imidazol-5-yl)-4-sulfamoylbenzamide]: the Kd amounted to 29 nM.

For the compound `CC(=O)N1CCC(N(C)C(=O)c2ccc3[nH]c(=O)[nH]c3c2)CC1` [Example 86, N-(1-Acetylpiperidin-4-yl)-N-methyl-2-oxo-2,3-dihydro-1H-benzo[d]imidazole-5-carboxamide], the Kd amounted to 4 nM.

Turning to `O=C(Nc1ccc2[nH]c(=O)[nH]c2c1)[C@H]1CCCc2ccccc21` [Example 71, (S)—N-(2-Oxo-2,3-dihydro-1H-benzo[d]imidazol-5-yl)-1,2,3,4-tetrahydronaphthalene-1-carboxamide], the Kd is 16 nM.

For `CNC(=O)c1ccc(Oc2ccc3[nH]c(=O)[nH]c3c2)cc1` [Example 156, N-Methyl-4-((2-oxo-2,3-dihydro-1H-benzo[d]imidazol-5-yl)oxy)benzamide], the Kd was found to be 22 nM.

Regarding `COC(=O)c1ccc2c(c1)CCN2C(=O)Nc1ccc2[nH]c(=O)[nH]c2c1` [Example 92, Methyl 1-((2-oxo-2,3-dihydro-1H-benzo[d]imidazol-5-yl)carbamoyl)indoline-5-carboxylate], the Kd was determined as 33 nM.
